{"source": "BindingDB's records for doi:10.1016/j.bmcl.2012.09.045", "about": "(East China University of Science and Technology, 2012)", "biological_target": "T1, Bile acid receptor (Homo sapiens, UniProt Q96RI1)", "T1 sequence (Q96RI1 whole entry)": "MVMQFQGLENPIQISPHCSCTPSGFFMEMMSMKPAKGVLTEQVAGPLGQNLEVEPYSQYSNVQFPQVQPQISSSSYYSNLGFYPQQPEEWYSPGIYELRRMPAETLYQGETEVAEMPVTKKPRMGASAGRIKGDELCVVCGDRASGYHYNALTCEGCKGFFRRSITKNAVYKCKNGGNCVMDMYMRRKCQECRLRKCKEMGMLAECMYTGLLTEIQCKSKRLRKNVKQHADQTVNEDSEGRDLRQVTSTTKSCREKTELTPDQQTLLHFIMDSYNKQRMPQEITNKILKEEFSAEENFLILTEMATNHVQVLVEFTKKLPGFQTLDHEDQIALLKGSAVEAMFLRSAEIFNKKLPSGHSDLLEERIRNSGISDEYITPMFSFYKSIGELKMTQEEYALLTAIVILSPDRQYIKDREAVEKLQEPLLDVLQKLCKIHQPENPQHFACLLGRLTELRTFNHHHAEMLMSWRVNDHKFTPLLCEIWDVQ", "test": "Agonist activity at FXR"}
{"smiles": "COC(=O)/C=C/c1cccc(N(Cc2ccc(-c3ccc(C(C)(C)C)cc3)cc2)C(=O)C(C)C)c1", "values": [{"measurement": "EC50", "value": 343, "unit": "nM"}]}
